Measurements reported in patent publication US7943628B2, “Pyrimidine derivatives” (Pfizer Limited, priority 2005, dated 2011).
Where two headings read alike, the source gives them in different places.

Target: T1, histamine H4 receptor (Homo sapiens, UniProt Q9H3N8)
T1 construct: expressed in transfected cells; host or cells: CHO cells
Assay: H4 binding, method 2 ([3H]-histamine binding with Ysi WGA beads on CHO cell membranes)
Conditions: H4 binding, method 2, Ki calculated from IC50 (Cheng-Prussoff)
Protocol: Cell pellets from CHO cells expressing the histamine H4 receptor were homogenised in ice-cold 50 mM Tris-HCl/0.5 mM CaCl2 buffer containing a protease inhibitor cocktail (Roche®, United Kingdom) using a ground glass homogeniser. Homogenates were centrifuged at 48000 g for 30 min at 4° C. The membrane pellet was resuspended in fresh buffer and the centrifugation step was repeated as described above. The membrane pellet was resuspended in 50 mM Tris-HCl in the same volume as the original cell pellet. Aliquots of membrane preparations were stored at −80° C. and were used for [^3H]-Histamine binding experiments.
Cell membranes (15 μg/well) were pre-incubated for 120 min shaking at 4° C. with Ysi WGA beads (250 μg/well) in 50 mM Tris-HCl (pH 7.4) followed by centrifugation at 1500 rpm for 5 minutes and resuspension in 50 mM Tris-HCl (pH 7.4). The membrane/bead mixture (15 μg membrane/250 μg beads well) was incubated for 90 minutes shaking at room temperature with 6.5 nM [2,5-^3H] Histamine dihydrochloride (30-60 Ci/mmol) in 50 mM Tris-HCl (pH 7.4), with or without competing H4 ligands. Non-specific binding was defined with 10 μM JNJ7777120. Bound radiolabel was determined using scintillation counting techniques after 90 minutes.

Row | Ki (read-out: Method 2 (Ki (nM))) | Structure (SMILES) | Ki (Method 2 (Ki (nM)))
1 | 20.5 nM | CNC1CN(c2cc(NCC3CC3)ncn2)C1 [Example 44, Cyclopropylmethyl-[6-(3-methylamino-azetidin-1-yl)-pyrimidin-4-yl]-amine] | 
2 | 420 nM | CNC1CN(c2cc(NCc3cccc(F)c3)ncn2)C1 [Example 45, (3-Fluoro-benzyl)-[6-(3-methylamino-azetidin-1-yl)-pyrimidin-4-yl]-amine] | 
3 | 40.1 nM | CNC1CN(c2cc(NC(C)C)ncn2)C1 [Example 46, N-Isopropyl-6-[3-(methylamino)azetidin-1-yl]pyrimidin-4-amine] | 
4 | 256 nM | CNC1CN(c2cc(NCc3ccc(F)cc3)ncn2)C1 [Example 47, N-(4-Fluorobenzyl)-6-[3-(methylamino)azetidin-1-yl]pyrimidin-4-amine] | 
5 | 49.7 nM | CCNc1cc(N2CC(NC)C2)ncn1 [Example 48, N-Ethyl-6-[3-(methylamino)azetidin-1-yl]pyrimidin-4-amine] | 
6 | 279 nM | CNC1CN(c2cc(NCCO)ncn2)C1 [Example 50, 2-({6-[3-(Methylamino)azetidin-1-yl]pyrimidin-4-yl}amino)ethanol] | 
7 | 161 nM | CNC1CN(c2cc(NCc3ccccc3)ncn2)C1 [Example 51, N-Benzyl-6-[3-(methylamino)azetidin-1-yl]pyrimidin-4-amine] | 
8 | 99.7 nM | CNC1CN(c2cc(NCc3ccccc3Cl)ncn2)C1 [Example 52, N-(2-Chlorobenzyl)-6-[3-(methylamino)azetidin-1-yl]pyrimidin-4-amine] | 
9 | 1940 nM | CNC1CN(c2cc(N3CCC(C)CC3)ncn2)C1 [Example 53, N-Methyl-1-[6-(4-methylpiperidin-1-yl)pyrimidin-4-yl]azetidin-3-amine] | 
10 | 414 nM | CNC1CN(c2cc(NCCOC)ncn2)C1 [Example 54, N-(2-Methoxyethyl)-6-[3-(methylamino)azetidin-1-yl]pyrimidin-4-amine] | 
11 | 28.9 nM | CNC1CN(c2cc(NCCC(C)C)ncn2)C1 [Example 55, 6-[3-(Methylamino)azetidin-1-yl]-N-(3-methylbutyl)pyrimidin-4-amine] | 
12 | 1590 nM | CNC1CN(c2cc(N3CCCCC3)ncn2)C1 [Example 56, N-Methyl-1-(6-piperidin-1-ylpyrimidin-4-yl)azetidin-3-amine] | 
13 | 20.3 nM | CNC1CN(c2cc(NCC(C)(C)C)ncn2)C1 [Example 57, N-(2,2-Dimethylpropyl)-6-[3-(methylamino)azetidin-1-yl]pyrimidin-4-amine] | 
14 | 61.1 nM | CNC1CN(c2cc(NCc3cccc(OC)c3)nc(N)n2)C1 [Example 66, N^4-(3-Methoxy-benzyl)-6-(3-methylamino-azetidin-1-yl)-pyrimidine-2,4-diamine] | 
15 | 9.38 nM | CNc1cc(N2CC(NC)C2)nc(N)n1 [Example 69, N^4-Methyl-6-[3-(methylamino)azetidin-1-yl]pyrimidine-2,4-diamine] | 
16 | 11.9 nM | CNC1CN(c2cc(NC3CC3)nc(N)n2)C1 [Example 72, N^4-Cyclopropyl-6-[3-(methylamino)azetidin-1-yl]pyrimidine-2,4-diamine] | 
17 | 125 nM | CNC1CN(c2cc(NCc3ccc(OC(F)(F)F)cc3)nc(N)n2)C1 [Example 76, 6-[3-(Methylamino)azetidin-1-yl]-N^4-[4-(trifluoromethoxy)benzyl]pyrimidine-2,4-diamine] | 
18 | 255 nM | CNC1CN(c2cc(NCc3ccc(C#N)cc3)nc(N)n2)C1 [Example 77, 4-[({2-Amino-6-[3-(methyl-amino)azetidin-1-yl]pyrimidin-4-yl}amino)methyl]benzonitrile] | 
19 | 3.66 nM | CNC1CN(c2cc(NCc3ccccc3F)nc(N)n2)C1 [Example 78, N^4-(2-Fluorobenzyl)-6-[3-(methylamino)azetidin-1-yl]pyrimidine-2,4-diamine] | 
20 | 11.2 nM | CNC1CN(c2cc(NCc3ccccc3)nc(N)n2)C1 [Example 79, N^4-Benzyl-6-[3-(methylamino)azetidin-1-yl]pyrimidine-2,4-diamine] | 
21 | 103 nM | CNC1CN(c2cc(NCc3cccc(C(F)(F)F)c3)nc(N)n2)C1 [Example 80, 6-[3-(Methylamino)azetidin-1-yl]-N^4-[3-(trifluoromethyl)benzyl]pyrimidine-2,4-diamine] | 

Row | Ki (read-out: Method 2 (Ki (nM))) | Structure (SMILES) | Ki (Method 2 (Ki (nM)))
22 | 12.1 nM | CNC1CN(c2cc(NCc3ccc(Cl)cc3)nc(N)n2)C1 [Example 81, N^4-(4-Chlorobenzyl)-6-[3-(methylamino)azetidin-1-yl]pyrimidine-2,4-diamine] | 
23 | 9.68 nM | CNC1CN(c2cc(NCc3ccccc3C)nc(N)n2)C1 [Example 82, 6-[3-(Methylamino)azetidin-1-yl]-N^4-(2-methylbenzyl)pyrimidine-2,4-diamine] | 
24 | 62.3 nM | CNC1CN(c2cc(NCc3cccc(C)c3)nc(N)n2)C1 [Example 83, 6-[3-(Methylamino)azetidin-1-yl]-N^4-(3-methylbenzyl)pyrimidine-2,4-diamine] | 
25 | 21.7 nM | CNC1CN(c2cc(NCc3ccccc3C(F)(F)F)nc(N)n2)C1 [Example 84, 6-[3-(Methylamino)azetidin-1-yl]-N^4-[2-(trifluoromethyl)benzyl]pyrimidine-2,4-diamine] | 
26 | 156 nM | CNC1CN(c2cc(NCc3ccc(C(F)(F)F)cc3)nc(N)n2)C1 [Example 85, 6-[3-(Methylamino)azetidin-1-yl]-N^4-[4-(trifluoromethyl)benzyl]pyrimidine-2,4-diamine] | 
27 | 142 nM | CNC1CN(c2cc(NCc3cccc(Cl)c3)nc(N)n2)C1 [Example 86, N^4-(3-Chlorobenzyl)-6-[3-(methylamino)azetidin-1-yl]pyrimidine-2,4-diamine] | 
28 | 17.4 nM | CNC1CN(c2cc(NCc3ccccc3OC)nc(N)n2)C1 [Example 87, N^4-(2-Methoxybenzyl)-6-[3-(methylamino)azetidin-1-yl]pyrimidine-2,4-diamine] | 
29 | 35.8 nM | CNC1CN(c2cc(NCc3ccc(C)cc3)nc(N)n2)C1 [Example 88, 6-[3-(Methylamino)azetidin-1-yl]-N^4-(4-methylbenzyl)pyrimidine-2,4-diamine] | 
30 | 1.93 nM | CNC1CN(c2cc(NCc3ccccc3Cl)nc(N)n2)C1 [Example 89, N^4-(2-Chlorobenzyl)-6-[3-(methylamino)azetidin-1-yl]pyrimidine-2,4-diamine] | 
31 | 6.42 nM | CNC1CN(c2cc(NCc3ccc(F)cc3)nc(N)n2)C1 [Example 90, N^4-(4-Fluorobenzyl)-6-[3-(methylamino)azetidin-1-yl]pyrimidine-2,4-diamine] | 
32 | 386 nM | CN1CCN(c2cc(NCc3cccc(F)c3)nc(N)n2)CC1 [Example 91, N^4-(3-Fluorobenzyl)-6-(4-methylpiperazin-1-yl)pyrimidine-2,4-diamine] | 
33 | 1350 nM | CN1C[C@@H]2CN(c3cc(NCc4cccc(F)c4)nc(N)n3)C[C@@H]2C1 [Example 92, N^4-(3-Fluorobenzyl)-6-[(3aR*,6aS*)-5-methylhexahydropyrrolo [3,4-c]pyrrol-2(1H)-yl]pyrimidine-2,4-diamine] | 
34 | 256 nM | C[C@@H]1CN(c2cc(NCCC(C)(C)C)nc(N)n2)CCN1 [Example 93, N^4-(3,3-Dimethylbutyl)-6-[(3R)-3-methylpiperazin-1-yl]pyrimidine-2,4-diamine] | 
35 | 61.1 nM | C[C@H]1CN(c2cc(NCCC(C)(C)C)nc(N)n2)CCN1 [Example 94, N^4-(3,3-Dimethylbutyl)-6-[(3S)-3-methylpiperazin-1-yl]pyrimidine-2,4-diamine] | 
36 | 9.11 nM | C[C@@H]1CN(c2cc(NCC(C)(C)C)nc(N)n2)CCN1 [Example 95, N^4-(2,2-Dimethylpropyl)-6-[(3R)-3-methylpiperazin-1-yl]pyrimidine-2,4-diamine] | 
37 | 3.77 nM | C[C@H]1CN(c2cc(NCC(C)(C)C)nc(N)n2)CCN1 [Example 96, N^4-(2,2-Dimethylpropyl)-6-[(3S)-3-methylpiperazin-1-yl]pyrimidine-2,4-diamine] | 
38 |  | CCNc1cc(N2CCN[C@H](C)C2)nc(N)n1 [Example 97, N^4-Ethyl-6-[(3R)-3-methylpiperazin-1-yl]pyrimidine-2,4-diamine] | 43.7 nM
39 |  | CCNc1cc(N2CCN[C@@H](C)C2)nc(N)n1 [Example 98, N^4-Ethyl-6-[(3S)-3-methylpiperazin-1-yl]pyrimidine-2,4-diamine] | 56.2 nM
40 | 8.42 nM | CC(C)CCNc1cc(N2CCN(C)CC2)nc(N)n1 [Example 108, N^4-(3-Methylbutyl)-6-(4-methylpiperazin-1-yl)pyrimidine-2,4-diamine] | 
41 | 42.7 nM | CN[C@@H]1CCN(c2cc(NCCC(C)(C)C)ncn2)C1 [Example 109, N-(3,3-Dimethylbutyl)-6-[(3R)-3-(methylamino)pyrrolidin-1-yl]pyrimidin-4-amine] | 
42 | 829 nM | COCCNc1cc(N2CCN(C)CC2)ncn1 [Example 110, N-(2-Methoxyethyl)-6-(4-methylpiperazin-1-yl)pyrimidin-4-amine] | 

Row | Structure (SMILES) | Ki (read-out: Method 2 (Ki (nM))) | Ki (Method 2 (Ki (nM)))
43 | CN1C[C@@H]2CN(c3cc(NC4CC4)nc(N)n3)C[C@@H]2C1 [Example 42, N^4-Cyclopropyl-6-[(3aR*,6aS*)-5-methylhexahydro-pyrrolo[3,4-c]pyrrol-2(1H)-yl]pyrimidine-2,4-diamine] | 433 nM | 
44 | CN1C[C@@H]2CN(c3cc(NC4CCC4)nc(N)n3)C[C@@H]2C1 [Example 43, N^4-Cyclobutyl-6-[(3aR*,6aS*)-5-methylhexahydro-pyrrolo[3,4-c]pyrrol-2(1H)-yl]pyrimidine-2,4-diamine] | 236 nM | 
